Source: PubChem BioAssay (NCI)
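Test compounds were applied to cells in 96-well plates for 48 hours at 5 doses. GI50 marks 50% less growth. At the TGI there is no net growth.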

Legend:
Test in all cases: growth of human tumour cells (NCI), 48 h
[1] = tested on: T-47D breast
[2] = tested on: PC-3 prostate
[3] = tested on: SK-OV-3 ovarian
[4] = tested on: A498 renal
[5] = tested on: HCC-2998 colon
[6] = tested on: HCT-15 colon
[7] = tested on: RPMI-8226 leukemia
[8] = tested on: SF-268 CNS
[9] = tested on: HOP-62 NSCLC
[10] = tested on: MDA-MB-231 breast

SMILES	GI50 [1] [nM]	TGI [1] [µM]	GI50 [2] [nM]	TGI [2] [µM]	GI50 [3] [µM]	TGI [3] [µM]	GI50 [4] [nM]	TGI [4] [µM]	TGI [5] [µM]	TGI [6] [µM]	TGI [7] [µM]	TGI [8] [µM]	TGI [9] [µM]	TGI [10] [µM]
COc1cc2nc(-c3ccc(Cl)cc3)cc(OCCCN3CCOCC3)c2cc1OC	1960	> 100	2630	> 100	3	> 100	1590	4.02	–	–	–	–	–	–
NCCN1CCCCCc2ccccc21	–	> 10	–	> 10	–	> 10	–	> 10	> 10	> 10	> 10	> 10	> 10	–
COc1ccc(CNc2cnc3ccc(N)cc3n2)cc1	–	–	–	–	–	–	–	–	> 100	> 100	> 100	> 100	> 100	–
C[n+]1cc2cc(O)c(O)cc2c2ccc3cc(O)c(O)cc3c21	–	> 100	–	34.4	–	> 53	–	11.8	> 57.6	> 34.2	> 100	13.5	10.8	> 100
Cc1c(N2CCOCC2)nc2ccc(Cl)cc2c1-c1ccccc1	–	–	–	–	–	> 100	–	> 100	> 100	> 100	> 100	> 100	> 100	–
CCOC1C=CC(=O)C(CO)O1 (configuration not stated)	–	24.9	–	28.9	–	33.3	–	49.4	34.4	25.3	6	32.5	28.4	32.1
CC(C)NC(=O)OCc1c(COC(=O)NC(C)C)n(C)c2c1ccc1sccc12	–	47.2	–	43.7	–	> 100	–	52.3	30.3	> 52.3	> 58.8	21.5	46.4	52
c1ccc2c(c1)SCCCS2	–	> 100	–	> 100	–	> 100	–	–	> 100	> 100	–	> 100	> 100	> 100
Cc1nc2ccc(Cl)cc2c(-n2ccnc2)c1CCn1ccnc1	–	–	–	72.1	–	> 100	–	76.2	> 100	> 100	–	> 100	> 100	48.9
O=[N+]([O-])c1ccc(C[P+]2(c3ccccc3)CCCCC2)cc1	–	–	–	–	–	> 100	–	> 100	> 100	> 100	> 100	–	> 100	–
Cc1nc2ccccc2nc1CC(=O)C(=O)Nc1ccc(Cl)cc1Cl	–	–	–	–	–	> 100	–	> 100	> 100	> 100	> 100	> 100	> 100	–
CN(C)CCn1c(=O)c2ccc(NCCCN(C)CCCNc3ccc4c(=O)n(CCN(C)C)c(=O)n5c6ccc(O)cc6c(=O)c3c45)c3c(=O)c4cc(O)ccc4n(c1=O)c23	–	10.2	–	0.31	–	2.4	–	0.367	0.173	3.41	–	1.04	1.51	0.177
